Measured values as given in patent US20180057547A1, “DIAGNOSTIC AND THERAPEUTIC EPITOPE, AND TRANSGENIC PLANT” (OXFORD UNIVERSITY INNOVATION LIMITED, priority 1999, published 2018).

Assays:
[1] = tested on: PBMC from coeliac volunteers; test: Antagonism of A-gliadin 57-73 QE65 interferon gamma ELISPOT response (simultaneous addition of peptide); type: cell-based, human; settings: peptides known to bind HLA-DQ2, 50 μg/ml plus A-gliadin 57-73 QE65 10 μg/ml
Description: Simultaneous addition of peptide (50 μg/ml) or buffer and A-gliadin 57-73 QE65 (10 μg/ml) in IFNgamma ELISPOT using PBMC from coeliac volunteers 6 days after commencing 3 day gluten challenge (n=5). Results were expressed as response with peptide plus A-G 57-73 QE65 (mean of duplicates) as % response with buffer plus A-G 57-73 QE65 (mean of 20 replicates). (See Table 9).

HLA-DQ2 = settings: cited from earlier work

In the case of “IDVWLGGLLAENFLPY [TP, reference compound]”, the “% Inhibit. of A-gliadin 57-73 QE65 interferon gamma ELISpot response” value [1] is given as 31% and the “binding to HLA-DQ2” value (HLA-DQ2) is given as “bind avidly to HLA-DQ2”.
In the case of “PRAPWIEQEGPEYW [HLA1a, reference compound]”, the “% Inhibit. of A-gliadin 57-73 QE65 interferon gamma ELISpot response” value [1] is given as 0%, the “% Inhibit. of A-gliadin 57-73 QE65 interferon gamma ELISpot response” value ([1]; listed as HLA class 1 α 46-60) is given as “does not alter responses” and the “binding to HLA-DQ2” value (HLA-DQ2) is given as “bind avidly to HLA-DQ2”.
